According to ChEMBL document CHEMBL1201862, “PubChem BioAssay data set” (2004):
The source made the active and inactive calls.

Experiments:
Cytochrome P450 3A4 = Cytochrome P450 3A4 (Homo sapiens, UniProt P08684); details: Potency;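 further: confirmatory qHTS run detecting inhibitors and substrates of CYP3A4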
[1] = inhibitors of Bluetongue virus cytopathic effect, confirmation, arbovirus, BSR cells (AID 1250); type: functional;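 further: protection from viral cytopathic effect measured as cell viability by ATP luminescence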
Major prion protein = Major prion protein (Homo sapiens, UniProt P04156); type: functional, cell-based
cells [2] = assay: cells
Beta-galactosidase = Beta-galactosidase (Escherichia coli, UniProt Q8VNN2); assay: PubChem AID 485352; type: functional
[3] = target: T1, Type-1 angiotensin II receptor (Homo sapiens, UniProt P30556); assay: AT1 receptor antagonists, dose response, selectivity assay for APJ receptor antagonist project, cell-based, uHTS hits (AID 463214); type: functional;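 further: antagonist potency against angiotensin II stimulated AT1 response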
T1 sequence (P30556 whole entry): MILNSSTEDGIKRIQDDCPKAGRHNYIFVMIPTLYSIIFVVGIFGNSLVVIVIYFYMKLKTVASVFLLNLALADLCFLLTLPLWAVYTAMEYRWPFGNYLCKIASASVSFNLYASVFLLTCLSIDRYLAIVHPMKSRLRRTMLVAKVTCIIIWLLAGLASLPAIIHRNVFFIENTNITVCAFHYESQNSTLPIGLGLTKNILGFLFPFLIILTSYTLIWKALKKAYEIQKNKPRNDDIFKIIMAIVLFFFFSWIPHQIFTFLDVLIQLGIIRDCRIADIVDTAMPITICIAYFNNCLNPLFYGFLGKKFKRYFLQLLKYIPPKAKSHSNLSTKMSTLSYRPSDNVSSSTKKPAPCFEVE

[4] = Shn3 3'UTR reporter inhibitors, dose response, cell-based, Clone20 osteoblasts, firefly luciferase, cherry-picked (AID 624132); type: functional;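 further: firefly luciferase luminescence from reporter carrying the Shn3 3'UTR in osteoblasts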
[5] = HepG2 cell cytotoxicity, dose response, cytotoxicity control for Shn3 inhibitor project, CellTiter-Glo, cherry-picked (AID 624134); type: functional, cell-based
[6] = control 3'UTR Renilla luciferase suppression, dose response, counter-screen for Shn3 inhibitor project, cell-based, Clone20-Shn3RL, cherry-picked (AID 624133); type: functional
[7] = inhibitors of HIV Env-driven cell fusion, dose response, cherry-pick (AID 652057); type: functional, cell-based
[8] = ZM109 Env clade C HIV-1 fusion inhibitors, dose response, HeLa effector, CEM target cells, luciferase, cherry-pick (AID 652058); type: functional, cell-based
[9] = off-target signal loss in HeLa-CEM21 co-culture – HeLa F-luc CTL cells, cherry-picked, counter-screen for HIV-1 Env fusion inhibitor project, dose response (AID 652040); type: functional, cell-based;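 further: potency for signal decrease marking cytotoxic or nonspecific inhibition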
[10] = inhibitors of clade B AD8 Env fusion, dose response, cell-based, cherry-pick (AID 652062); type: functional;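 further: luciferase signal from cell-cell fusion driven by HIV-1 clade B AD8 Env; potency is for inhibitors of fusion seen as a drop in luminescence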
[11] = target: T2, Ubiquitin-conjugating enzyme E2 N (Homo sapiens, UniProt P61088); type: functional;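 further: Dose-response confirmation in a TR-FRET assay detecting UBC13-driven polyubiquitin chain formation, inhibition measured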
T2 sequence (P61088 whole entry): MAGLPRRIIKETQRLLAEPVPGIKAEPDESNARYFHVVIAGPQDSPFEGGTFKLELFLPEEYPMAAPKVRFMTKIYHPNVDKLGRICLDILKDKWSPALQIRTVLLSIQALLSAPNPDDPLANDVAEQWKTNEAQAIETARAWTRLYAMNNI

cells [12] = type: functional
Leucine aminopeptidase = target: T3, Leucine aminopeptidase (Plasmodium falciparum 3D7, UniProt Q8IL11); assay: P. falciparum M17LAP inhibitors, primary screen, biochemical, fluorogenic H-Leu-NHMec substrate, 1536-well (AID 1619); type: functional
T3 sequence (Q8IL11 whole entry): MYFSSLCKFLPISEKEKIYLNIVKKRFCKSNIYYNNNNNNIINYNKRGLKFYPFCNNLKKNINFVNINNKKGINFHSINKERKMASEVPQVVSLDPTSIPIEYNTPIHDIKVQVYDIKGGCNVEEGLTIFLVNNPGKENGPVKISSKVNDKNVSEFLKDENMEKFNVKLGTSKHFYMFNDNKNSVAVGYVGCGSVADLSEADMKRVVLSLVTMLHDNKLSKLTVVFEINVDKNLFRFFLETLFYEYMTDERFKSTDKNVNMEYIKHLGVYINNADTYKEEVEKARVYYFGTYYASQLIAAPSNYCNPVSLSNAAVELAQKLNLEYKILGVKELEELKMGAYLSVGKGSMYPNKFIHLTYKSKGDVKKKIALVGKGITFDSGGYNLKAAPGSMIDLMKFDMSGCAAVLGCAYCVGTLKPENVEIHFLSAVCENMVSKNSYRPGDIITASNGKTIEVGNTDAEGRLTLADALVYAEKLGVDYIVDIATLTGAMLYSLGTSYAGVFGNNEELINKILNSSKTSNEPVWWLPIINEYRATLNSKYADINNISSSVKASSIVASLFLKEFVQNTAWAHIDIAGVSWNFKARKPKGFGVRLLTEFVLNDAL

[13] = system: Streptococcus sp. 'group A'; assay: growth inhibition of control SK(-) GAS strain, dose response, counter-screen for streptokinase expression inhibitor project, luminescence, kanamycin, BacTiterGlo, confirmation (AID 1900); type: functional, organism-based
Streptokinase A = target: T4, Streptokinase A (Streptococcus pyogenes serotype M1, UniProt P10520); assay: S. pyogenes streptokinase expression inhibitors, potency, dose response, plasminogen activation absorbance, OD405 (AID 1914); type: functional, Streptococcus pyogenes M1 GAS;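 further: secreted streptokinase activity via plasminogen activation per viability signal from cell pellet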
T4 sequence (P10520 whole entry): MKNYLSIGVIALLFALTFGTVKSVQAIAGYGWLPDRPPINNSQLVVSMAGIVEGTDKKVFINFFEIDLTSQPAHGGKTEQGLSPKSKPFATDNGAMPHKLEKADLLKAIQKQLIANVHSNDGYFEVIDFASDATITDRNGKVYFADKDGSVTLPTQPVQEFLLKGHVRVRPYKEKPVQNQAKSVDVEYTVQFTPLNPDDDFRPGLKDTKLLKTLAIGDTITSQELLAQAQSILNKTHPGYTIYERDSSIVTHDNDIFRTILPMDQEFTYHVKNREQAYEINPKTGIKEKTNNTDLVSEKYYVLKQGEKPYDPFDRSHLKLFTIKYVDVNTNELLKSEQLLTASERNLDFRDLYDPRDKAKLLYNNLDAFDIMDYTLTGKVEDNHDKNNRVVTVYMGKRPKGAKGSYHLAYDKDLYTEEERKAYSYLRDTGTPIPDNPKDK

Streptococcus = assay: Group A Streptococcus viability loss, dose response, counter-screen for streptokinase expression inhibitor project, luminescence, BacTiterGlo (AID 1915); type: functional, organism-based;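 further: potency for reduction of bacterial viability or growth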
[14] = P. falciparum 3D7-ScDHODH growth inhibitors, dose response, SYBR Green, dry powder samples (AID 1159570); type: functional, cell-based;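 further: parasite growth measured after 72 hours of compound exposure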
[15] = HepG2 cell cytotoxicity, dose response, cytotoxicity control, plate reader, dry powder samples (AID 1159569); type: functional, cell-based;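 further: inhibitor potency with signal falling toward the positive control level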
[16] = P. falciparum Dd2 growth inhibitors, dose response, SYBR Green, cherry-picked samples (AID 1159567); type: functional, cell-based
[17] = P. falciparum Dd2 growth inhibitors, dose response, SYBR Green, dry powder samples (AID 1159566); type: functional, cell-based;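 further: potency for growth inhibition with lower SYBR green DNA signal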
[18] = P. falciparum ATP4 D1247Y mutant growth inhibitors, dose response, NITD609-resistant line, SYBR Green, dry powder (AID 1159571); type: functional, cell-based;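 further: parasites synchronized at ring stage by sorbitol before testing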

## CC(C)CCN1CCc2nc(-c3ccccc3)c3c(c2C1)COC(C)C3 (stereo unspecified)
Cytochrome P450 3A4
  AC50: 3.16 µM (inconclusive)

## CCOC(=O)c1nn(-c2cccc(Cl)c2)c2nc(Nc3ccccc3)cc(=O)n12
[1]
  IC50: 33 µM (active)

## Cc1sc2ncnc(Sc3ccccc3C(=O)O)c2c1C
Major prion protein
  IC50: 0.908 µM (active)
Cells [2]
  IC50: > 138 µM (inactive)

## FC(F)(F)c1cccc(Sc2nc(-c3ccccc3)nnc2C(F)(F)F)c1
Beta-galactosidase
  EC50: > 40 µM (inactive)
[3]
  IC50: 21.4 µM (not active)

## SC1=NCCc2ccccc2C1c1ccccc1Cl (stereo unspecified)
Beta-galactosidase
  EC50: > 40 µM (inactive)
[3]
  IC50: 13.8 µM (active)

## CCOc1ccc(C2C(C#N)=C(N)SC(N)=C2C#N)cc1OCC
Major prion protein
  IC50: 2.32 µM (active)
Cells [2]
  IC50: > 138 µM (inactive)

## CCC1(C)Cc2ccccc2-c2[nH]c(=S)[nH]c(=O)c21 (stereo unspecified)
Major prion protein
  IC50: 2.93 µM (active)

## CCC1(C)Cc2ccccc2-c2nc(S)nc(O)c21 (stereo unspecified)
Cells [2]
  IC50: > 138 µM (inactive)

## FC(F)(F)c1ccc(CN2C[C@@H]3C(c4ccccc4)C4(c5ccccc5)CC3(C4)[C@H]2c2ccccc2)cc1 (stereo partly specified)
Cytochrome P450 3A4
  AC50: 15.8 µM (inconclusive)

## CC(=O)Nc1ccc(NC(=O)CCC(=O)OCC(=O)c2ccc(C)c([N+](=O)[O-])c2)cc1
Beta-galactosidase
  EC50: > 40 µM (inactive)
[3]
  IC50: > 40 µM (not active)

## O=C(c1ccccc1)N1CCN(c2ncnc3sc4c(c23)CCC4)CC1
[4]
  AC50: 4.14 µM (active)
[5]
  AC50: 48 µM (active)
[6]
  AC50: 4.25 µM (active)
[7]
  AC50: 28.7 µM (active)
[8]
  AC50: 41.4 µM (active)

## COc1ccc([C@@H]2[C@@H]3C(=O)N(C(C)(C)C)C(=O)[C@@H]3[C@]3(CC(C)C)C(=O)N(c4ccc(C(F)(F)F)cc4)C(=O)N23)cc1
[7]
  AC50: 1.6 µM (active)
[8]
  AC50: 2.51 µM (active)
[9]
  AC50: 3.8 µM (active)
[10]
  AC50: 4.52 µM (active)

## O=C(COc1ccc(Cl)cc1)NNC(=O)c1ccccn1
[11]
  IC50: > 20 µM (inactive)
Cells [12]
  IC50: 6.74 µM (active)

## Cc1ccc(C(=O)CNc2ccccc2C)cc1
Beta-galactosidase
  EC50: > 40 µM (inactive)
[3]
  IC50: 8.2 µM (active)

## COc1cccc(OC)c1C(=O)NC(C)C12CC3CC(CC(C3)C1)C2 (stereo unspecified)
[1]
  IC50: 22.7 µM (active)

## CC(C)=CCCC1(C)C=Cc2c(O)c3c(c(CC=C(C)C)c2O1)OC12C(=CC4CC1C(C)(C)OC2(C/C=C(/C)C(=O)O)C4=O)C3=O (stereo unspecified)
Cytochrome P450 3A4
  AC50: 39.8 µM (inconclusive)

## Cc1ccc(C(=O)Nc2sc3c(c2C(=O)O)CCCCC3)o1
[1]
  IC50: 28.4 µM (active)

## O=C(Cn1cc(C(=O)c2cccs2)c2ccccc21)NC1CCCCC1
[11]
  IC50: > 20 µM (inactive)

## CC(=O)OC1CCC2C3CCc4cc(O)ccc4C3CCC12C (stereo unspecified)
Cytochrome P450 3A4
  AC50: 39.8 µM (inconclusive)

## CCOC(=O)CC(=O)CSc1nc(O)c2sc(=S)n(-c3ccc(OCC)cc3)c2n1
Leucine aminopeptidase
  IC50: 26.4 µM (active)
[1]
  IC50: 21.6 µM (active)

## Cc1cc(NC(=O)CSc2nc(-c3cccs3)nc3ccccc23)no1
Major prion protein
  IC50: 2.15 µM (active)
Cells [2]
  IC50: 53.6 µM (inactive)

## COc1ccc(NC(=O)Nc2ccc3c(c2)C(=O)N([C@H](C)CO)C[C@H](C)[C@H](CN(C)Cc2ccncc2)OCCCC[C@H](C)O3)cc1
[7]
  AC50: 13 µM (active)
[8]
  AC50: 8.87 µM (active)
[10]
  AC50: 20.1 µM (active)

## Cc1ccc(C)c(NC(=S)N/N=C2/CCCCc3ccccc32)c1
[13]
  EC50: 0.956 µM (active)
Beta-galactosidase
  EC50: > 40 µM (inactive)
Streptokinase A
  EC50: > 150 µM (not active)
[3]
  IC50: > 40 µM (not active)
Streptococcus
  EC50: > 150 µM (not active)

## CO[C@H]1CN(C)C(=O)c2cc(NC(=O)Nc3cccc(Cl)c3)ccc2OC[C@H](C)NC[C@H]1C
[14]
  AC50: 3.37 µM (active)
[15]
  AC50: 25 µM (active)
[16]
  AC50: 4.56 µM (active)
[17]
  AC50: 3.03 µM (active)
[18]
  AC50: 5.09 µM (active)

## CO[C@@H]1CN(C)C(=O)c2ccc(NC(=O)Nc3ccc(C(F)(F)F)cc3)cc2OC[C@H](C)NC[C@H]1C
[14]
  AC50: 2.96 µM (active)
[15]
  AC50: 32.6 µM (active)
[16]
  AC50: 2.13 µM (active)
[17]
  AC50: 1.51 µM (active)
[18]
  AC50: 2.88 µM (active)

## C[C@@H]1CN([C@H](C)CO)C(=O)c2cccc(NC(=O)c3ccc(-c4nccs4)cc3)c2O[C@H]1CN(C)Cc1ccc2c(c1)OCO2
[14]
  AC50: 3.63 µM (active)
[15]
  AC50: > 100 µM (inactive)
[16]
  AC50: 1.19 µM (active)
[17]
  AC50: 3.02 µM (active)
[18]
  AC50: 3.44 µM (active)

## C/C=C/c1ccc2c(c1)[C@H]1[C@H](CCN1S(=O)(=O)c1ccccc1C)[C@@H](CO)N2
[14]
  AC50: 1.46 µM (active)
[16]
  AC50: 1.83 µM (active)
[17]
  AC50: 1.18 µM (active)
[18]
  AC50: 0.942 µM (active)

## CCCCCC[C@H]1C(=O)O[C@H](C)[C@H](NC(=O)c2cccc(NC=O)c2O)C(=O)O[C@@H](C)[C@@H]1OC(=O)CC(C)C [ANTIMYCIN A]
Cytochrome P450 3A4
  AC50: 6.31 µM (inconclusive)

## NC(=O)c1ccccc1 [BENZAMIDE]
Cytochrome P450 3A4
  AC50: 0.005 µM (inconclusive)
